Test results: ChEMBL document CHEMBL4507276 (2021)

How the values were obtained:
Settings in all cases: Compound concentration 1000.0 nM
[1] = system: Tyrosine-protein kinase ABL1 (Homo sapiens), P00519 [F317I]
[2] = system: Tyrosine-protein kinase ABL1 (Homo sapiens), P00519 [F317L]
[3] = system: Tyrosine-protein kinase ABL1 (Homo sapiens), P00519 [Y253F]
[4] = molecular target: Mitogen-activated protein kinase kinase kinase 6 (Homo sapiens) (UniProt O95382)
[5] = molecular target: Mitotic checkpoint serine/threonine-protein kinase BUB1 (Homo sapiens) (UniProt O43683)
[6] = molecular target: Calcium/calmodulin-dependent protein kinase type 1 (Homo sapiens) (UniProt Q14012)
[7] = molecular target: Calcium/calmodulin-dependent protein kinase type 1B (Homo sapiens) (UniProt Q6P2M8)
[8] = molecular target: Calcium/calmodulin-dependent protein kinase type II subunit beta (Homo sapiens) (UniProt Q13554)
[9] = molecular target: Cyclin-dependent kinase 4 (Homo sapiens) (UniProt P11802)
[10] = molecular target: Dual specificity tyrosine-phosphorylation-regulated kinase 2 (Homo sapiens) (UniProt Q92630)
[11] = system: Epidermal growth factor receptor (Homo sapiens), P00533 [G719S]
[12] = system: Epidermal growth factor receptor (Homo sapiens), P00533 [L861Q]
[13] = molecular target: Tyrosine-protein kinase Fer (Homo sapiens) (UniProt P16591)
[14] = molecular target: Fibroblast growth factor receptor 1 (Homo sapiens) (UniProt P11362)
[15] = system: Receptor-type tyrosine-protein kinase FLT3 (Homo sapiens), P36888 [K663Q]
[16] = molecular target: Mitogen-activated protein kinase kinase kinase kinase 1 (Homo sapiens) (UniProt Q92918)
[17] = molecular target: Serine/threonine-protein kinase ICK (Homo sapiens) (UniProt Q9UPZ9)
[18] = molecular target: Tyrosine-protein kinase JAK1 (Homo sapiens) (UniProt P23458)
[19] = molecular target: Mitogen-activated protein kinase 8 (Homo sapiens) (UniProt P45983)
[20] = system: Mast/stem cell growth factor receptor Kit (Homo sapiens), P10721 [D816V]
[21] = system: Mast/stem cell growth factor receptor Kit (Homo sapiens), P10721 [V559D]
[22] = system: Mast/stem cell growth factor receptor Kit (Homo sapiens), P10721 [V559D,T670I]
[23] = system: Hepatocyte growth factor receptor (Homo sapiens), P08581 [Y1235D]
[24] = molecular target: Phosphorylase b kinase regulatory subunit alpha, liver isoform (Homo sapiens) (UniProt P46019)
[25] = molecular target: Phosphatidylinositol 4-phosphate 3-kinase C2 domain-containing subunit beta (Homo sapiens) (UniProt O00750)
[26] = system: Phosphatidylinositol 4,5-bisphosphate 3-kinase catalytic subunit alpha isoform (Homo sapiens), P42336 [H1047Y]
[27] = molecular target: Phosphatidylinositol 4-phosphate 5-kinase type-1 gamma (Homo sapiens) (UniProt O60331)
[28] = system: Proto-oncogene tyrosine-protein kinase receptor Ret (Homo sapiens), P07949 [M918T]
[29] = molecular target: Receptor-interacting serine/threonine-protein kinase 1 (Homo sapiens) (UniProt Q13546)
[30] = molecular target: Receptor-interacting serine/threonine-protein kinase 2 (Homo sapiens) (UniProt O43353)
[31] = molecular target: Ribosomal protein S6 kinase alpha-6 (Homo sapiens) (UniProt Q9UK32)
[32] = molecular target: T1, Serine/threonine-protein kinase Sgk3 (Homo sapiens) (UniProt Q96BR1)
T1 sequence (whole entry): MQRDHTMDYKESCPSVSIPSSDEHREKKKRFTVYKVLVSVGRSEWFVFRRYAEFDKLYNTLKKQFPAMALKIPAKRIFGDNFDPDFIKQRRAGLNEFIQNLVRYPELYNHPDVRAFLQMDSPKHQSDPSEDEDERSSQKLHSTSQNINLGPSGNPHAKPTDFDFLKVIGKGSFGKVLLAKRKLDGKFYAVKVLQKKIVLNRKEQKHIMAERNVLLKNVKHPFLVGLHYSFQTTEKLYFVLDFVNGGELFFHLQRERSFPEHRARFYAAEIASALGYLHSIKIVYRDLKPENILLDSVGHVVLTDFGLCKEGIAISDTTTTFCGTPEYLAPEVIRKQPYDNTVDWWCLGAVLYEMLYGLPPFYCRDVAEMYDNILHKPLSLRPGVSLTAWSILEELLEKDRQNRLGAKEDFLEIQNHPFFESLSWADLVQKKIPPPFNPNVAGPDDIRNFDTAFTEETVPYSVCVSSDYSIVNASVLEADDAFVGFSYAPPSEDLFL

[33] = molecular target: NUAK family SNF1-like kinase 2 (Homo sapiens) (UniProt Q9H093)
[34] = molecular target: SRSF protein kinase 1 (Homo sapiens) (UniProt Q96SB4)
[35] = molecular target: Serine/threonine-protein kinase 33 (Homo sapiens) (UniProt Q9BYT3)
[36] = molecular target: Serine/threonine-protein kinase 35 (Homo sapiens) (UniProt Q8TDR2)
[37] = molecular target: Tyrosine-protein kinase SYK (Homo sapiens) (UniProt P43405)
[38] = molecular target: Serine/threonine-protein kinase tousled-like 2 (Homo sapiens) (UniProt Q86UE8)

Serine/threonine-protein kinase 35 (Homo sapiens), sequence (Q8TDR2 whole entry): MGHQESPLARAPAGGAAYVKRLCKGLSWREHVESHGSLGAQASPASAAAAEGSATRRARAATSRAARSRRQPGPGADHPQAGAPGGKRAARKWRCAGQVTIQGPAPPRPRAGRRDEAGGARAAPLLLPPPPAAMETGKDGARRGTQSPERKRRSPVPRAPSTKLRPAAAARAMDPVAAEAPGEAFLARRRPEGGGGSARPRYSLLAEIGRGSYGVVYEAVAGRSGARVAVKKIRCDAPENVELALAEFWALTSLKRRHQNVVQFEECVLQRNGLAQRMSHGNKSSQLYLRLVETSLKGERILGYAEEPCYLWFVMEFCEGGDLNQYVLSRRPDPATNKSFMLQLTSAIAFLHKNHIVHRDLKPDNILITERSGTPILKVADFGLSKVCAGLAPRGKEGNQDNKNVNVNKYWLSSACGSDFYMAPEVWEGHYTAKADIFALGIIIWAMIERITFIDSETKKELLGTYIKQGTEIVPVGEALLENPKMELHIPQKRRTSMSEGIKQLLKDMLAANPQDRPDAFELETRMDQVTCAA
Serine/threonine-protein kinase 33 (Homo sapiens), sequence (Q9BYT3 whole entry, looked up): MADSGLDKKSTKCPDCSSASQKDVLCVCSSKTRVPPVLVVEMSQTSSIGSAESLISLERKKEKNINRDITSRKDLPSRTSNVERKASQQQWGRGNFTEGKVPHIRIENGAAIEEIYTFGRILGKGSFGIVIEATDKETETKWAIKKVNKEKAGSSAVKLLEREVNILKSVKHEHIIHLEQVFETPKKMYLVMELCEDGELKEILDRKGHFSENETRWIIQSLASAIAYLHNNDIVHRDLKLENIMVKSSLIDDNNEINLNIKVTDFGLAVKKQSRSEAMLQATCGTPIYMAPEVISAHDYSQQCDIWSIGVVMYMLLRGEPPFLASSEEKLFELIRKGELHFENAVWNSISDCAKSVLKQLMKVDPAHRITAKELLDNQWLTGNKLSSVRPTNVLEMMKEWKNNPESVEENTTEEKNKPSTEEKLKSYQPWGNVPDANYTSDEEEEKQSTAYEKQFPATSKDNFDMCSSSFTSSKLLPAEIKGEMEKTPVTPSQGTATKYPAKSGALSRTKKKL
Phosphatidylinositol 4-phosphate 3-kinase C2 domain-containing subunit beta (Homo sapiens), sequence (O00750 whole entry, the tested form may be a part, canonical isoform): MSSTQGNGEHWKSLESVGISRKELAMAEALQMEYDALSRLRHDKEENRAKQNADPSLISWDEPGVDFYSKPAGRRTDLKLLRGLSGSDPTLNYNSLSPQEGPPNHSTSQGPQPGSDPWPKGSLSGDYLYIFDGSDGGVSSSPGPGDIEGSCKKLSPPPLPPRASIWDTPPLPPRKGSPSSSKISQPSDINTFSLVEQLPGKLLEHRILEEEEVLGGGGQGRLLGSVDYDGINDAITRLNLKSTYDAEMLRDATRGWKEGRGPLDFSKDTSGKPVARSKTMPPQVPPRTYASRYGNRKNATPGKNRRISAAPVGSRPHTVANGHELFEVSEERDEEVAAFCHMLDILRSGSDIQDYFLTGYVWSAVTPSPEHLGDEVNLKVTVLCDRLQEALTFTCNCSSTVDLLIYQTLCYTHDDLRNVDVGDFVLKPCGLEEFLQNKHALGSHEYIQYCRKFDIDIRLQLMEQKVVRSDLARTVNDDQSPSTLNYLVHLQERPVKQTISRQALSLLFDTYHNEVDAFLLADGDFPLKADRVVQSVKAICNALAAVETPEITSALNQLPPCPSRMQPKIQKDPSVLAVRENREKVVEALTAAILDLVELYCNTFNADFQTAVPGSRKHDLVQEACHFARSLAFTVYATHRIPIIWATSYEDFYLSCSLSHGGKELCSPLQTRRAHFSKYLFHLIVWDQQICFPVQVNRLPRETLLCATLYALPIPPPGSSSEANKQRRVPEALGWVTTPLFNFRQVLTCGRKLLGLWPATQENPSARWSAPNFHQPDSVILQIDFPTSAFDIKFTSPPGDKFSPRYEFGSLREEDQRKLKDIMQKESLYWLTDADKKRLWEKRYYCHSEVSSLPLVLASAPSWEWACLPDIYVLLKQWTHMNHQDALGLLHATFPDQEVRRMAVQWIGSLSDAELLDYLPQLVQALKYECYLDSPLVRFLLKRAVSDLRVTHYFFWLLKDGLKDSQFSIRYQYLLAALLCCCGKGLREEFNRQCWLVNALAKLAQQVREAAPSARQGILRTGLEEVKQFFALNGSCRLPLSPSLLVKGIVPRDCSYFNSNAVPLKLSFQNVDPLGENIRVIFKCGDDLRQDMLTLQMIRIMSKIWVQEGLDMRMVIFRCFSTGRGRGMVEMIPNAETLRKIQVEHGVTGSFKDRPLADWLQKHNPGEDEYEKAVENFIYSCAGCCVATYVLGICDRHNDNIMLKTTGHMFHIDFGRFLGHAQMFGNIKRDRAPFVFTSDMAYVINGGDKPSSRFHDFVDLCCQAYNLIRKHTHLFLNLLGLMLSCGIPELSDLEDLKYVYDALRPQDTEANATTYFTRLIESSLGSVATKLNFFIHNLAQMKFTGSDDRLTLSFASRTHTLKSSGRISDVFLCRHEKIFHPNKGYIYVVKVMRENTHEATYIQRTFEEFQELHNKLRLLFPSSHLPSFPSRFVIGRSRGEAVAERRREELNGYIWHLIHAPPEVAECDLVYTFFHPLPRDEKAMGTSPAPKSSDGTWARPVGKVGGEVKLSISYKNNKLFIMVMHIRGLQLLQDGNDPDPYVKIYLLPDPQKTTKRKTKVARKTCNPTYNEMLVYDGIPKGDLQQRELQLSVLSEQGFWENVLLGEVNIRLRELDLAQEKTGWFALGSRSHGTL
Dual specificity tyrosine-phosphorylation-regulated kinase 2 (Homo sapiens), sequence (Q92630 whole entry): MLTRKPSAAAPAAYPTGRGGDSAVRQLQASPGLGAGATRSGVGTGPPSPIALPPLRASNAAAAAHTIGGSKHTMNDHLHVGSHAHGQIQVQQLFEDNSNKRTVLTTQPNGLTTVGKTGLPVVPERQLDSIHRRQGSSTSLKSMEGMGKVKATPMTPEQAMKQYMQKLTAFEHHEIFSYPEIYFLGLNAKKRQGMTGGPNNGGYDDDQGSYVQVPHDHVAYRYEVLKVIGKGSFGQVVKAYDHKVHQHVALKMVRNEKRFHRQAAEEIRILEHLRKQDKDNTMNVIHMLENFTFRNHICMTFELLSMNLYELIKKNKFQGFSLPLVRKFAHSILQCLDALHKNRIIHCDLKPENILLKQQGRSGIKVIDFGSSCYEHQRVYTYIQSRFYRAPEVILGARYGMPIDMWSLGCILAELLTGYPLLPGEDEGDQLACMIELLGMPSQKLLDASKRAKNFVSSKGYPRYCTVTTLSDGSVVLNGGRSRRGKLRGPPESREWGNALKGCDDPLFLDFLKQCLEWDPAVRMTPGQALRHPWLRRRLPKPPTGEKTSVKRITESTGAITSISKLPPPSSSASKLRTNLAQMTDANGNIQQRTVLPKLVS
Mitogen-activated protein kinase kinase kinase kinase 1 (Homo sapiens), sequence (Q92918 whole entry, looked up): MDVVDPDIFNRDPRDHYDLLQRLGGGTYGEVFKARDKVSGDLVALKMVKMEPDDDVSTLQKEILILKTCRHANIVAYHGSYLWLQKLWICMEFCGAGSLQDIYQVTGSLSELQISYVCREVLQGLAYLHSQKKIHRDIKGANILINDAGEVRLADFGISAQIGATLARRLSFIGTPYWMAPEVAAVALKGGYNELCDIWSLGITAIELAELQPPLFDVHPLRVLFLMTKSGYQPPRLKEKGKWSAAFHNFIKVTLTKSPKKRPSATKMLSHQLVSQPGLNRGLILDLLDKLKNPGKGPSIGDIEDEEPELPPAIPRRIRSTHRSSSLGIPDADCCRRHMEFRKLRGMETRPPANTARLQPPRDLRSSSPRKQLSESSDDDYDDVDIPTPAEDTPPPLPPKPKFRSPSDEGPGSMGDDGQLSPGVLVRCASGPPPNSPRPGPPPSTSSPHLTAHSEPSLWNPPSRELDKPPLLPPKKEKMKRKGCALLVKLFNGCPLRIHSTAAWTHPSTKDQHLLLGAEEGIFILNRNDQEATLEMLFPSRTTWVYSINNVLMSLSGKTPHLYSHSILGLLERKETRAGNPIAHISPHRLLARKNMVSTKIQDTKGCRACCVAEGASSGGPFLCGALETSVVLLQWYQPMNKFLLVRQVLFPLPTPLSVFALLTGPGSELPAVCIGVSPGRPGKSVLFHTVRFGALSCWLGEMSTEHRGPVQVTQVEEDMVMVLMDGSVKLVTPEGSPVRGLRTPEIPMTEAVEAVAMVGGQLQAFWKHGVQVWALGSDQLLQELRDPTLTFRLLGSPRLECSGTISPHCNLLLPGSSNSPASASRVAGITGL
NUAK family SNF1-like kinase 2 (Homo sapiens), sequence (Q9H093 whole entry): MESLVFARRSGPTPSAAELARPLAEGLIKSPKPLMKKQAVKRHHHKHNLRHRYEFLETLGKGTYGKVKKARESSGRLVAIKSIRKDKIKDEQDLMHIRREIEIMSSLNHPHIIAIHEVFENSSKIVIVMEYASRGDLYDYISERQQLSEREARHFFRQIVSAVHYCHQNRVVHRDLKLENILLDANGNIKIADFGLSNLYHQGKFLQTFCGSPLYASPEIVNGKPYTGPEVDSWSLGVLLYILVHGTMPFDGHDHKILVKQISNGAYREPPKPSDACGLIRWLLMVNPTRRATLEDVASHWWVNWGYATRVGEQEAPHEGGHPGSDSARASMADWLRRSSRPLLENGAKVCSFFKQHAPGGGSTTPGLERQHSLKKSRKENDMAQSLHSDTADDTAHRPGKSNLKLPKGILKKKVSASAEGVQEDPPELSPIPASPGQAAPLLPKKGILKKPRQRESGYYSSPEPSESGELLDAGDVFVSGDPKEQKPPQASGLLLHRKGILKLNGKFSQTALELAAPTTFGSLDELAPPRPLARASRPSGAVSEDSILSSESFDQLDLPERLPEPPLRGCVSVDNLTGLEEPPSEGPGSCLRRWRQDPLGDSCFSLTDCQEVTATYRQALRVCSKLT
Cyclin-dependent kinase 4 (Homo sapiens), sequence (P11802 whole entry): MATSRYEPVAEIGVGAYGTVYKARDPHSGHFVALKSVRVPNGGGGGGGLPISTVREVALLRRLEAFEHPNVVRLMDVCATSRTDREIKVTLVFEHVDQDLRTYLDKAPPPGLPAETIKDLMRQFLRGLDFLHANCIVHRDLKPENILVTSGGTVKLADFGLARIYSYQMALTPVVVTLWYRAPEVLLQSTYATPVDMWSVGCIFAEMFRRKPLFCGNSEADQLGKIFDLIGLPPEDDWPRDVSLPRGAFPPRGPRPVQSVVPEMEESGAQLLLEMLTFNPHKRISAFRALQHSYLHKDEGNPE

Structure (SMILES) | residual activity [1] | residual activity [2] | residual activity [3] | residual activity [4] | residual activity [5] | residual activity [6] | residual activity [7] | residual activity [8] | residual activity [9] | residual activity [10] | residual activity [11] | residual activity [12] | residual activity [13] | residual activity [14] | residual activity [15] | residual activity [16] | residual activity [17] | residual activity [18] | residual activity [19] | residual activity [20] | further results
CN(C)C(=O)Cn1cc(-c2nc(C3(c4ccc(-c5cnc(N)nc5)cc4)CC3)no2)cn1 [BI 0153] | 76% | 85% | 98% | 78% | 75% | 100% | 77% | 94% | 44% | 81% | 100% | 100% | 79% | 72% | 100% | 81% | 76% | 100% | 78% | 92% | residual activity [21]: 100%; residual activity [22]: 100%; residual activity [23]: 98%; residual activity [24]: 91%; residual activity [25]: 100%; residual activity [26]: 94%; residual activity [27]: 96%; residual activity [28]: 99%; residual activity [29]: 89%; residual activity [30]: 100%; residual activity [31]: 83%; residual activity [32]: 75%; residual activity [33]: 87%; residual activity [34]: 93%; residual activity [35]: 99%; residual activity [36]: 94%; residual activity [37]: 77%; residual activity [38]: 100%
CN(C)C(=O)Cn1cc(-c2nc([C@@](C)(c3ccc(-c4cnc(N)nc4)cc3)C3CC3)no2)cn1 [BI 665915] | 96% | 88% | 76% | 90% | 75% | 100% | 88% | 96% | 94% | 89% | 98% | 100% | 94% | 95% | 94% | 100% | 100% | 33% | 51% | 94% | residual activity [21]: 91%; residual activity [22]: 81%; residual activity [23]: 96%; residual activity [24]: 80%; residual activity [25]: 96%; residual activity [26]: 87%; residual activity [27]: 100%; residual activity [28]: 83%; residual activity [29]: 82%; residual activity [30]: 87%; residual activity [31]: 96%; residual activity [32]: 76%; residual activity [33]: 83%; residual activity [34]: 100%; residual activity [35]: 100%; residual activity [36]: 88%; residual activity [37]: 73%; residual activity [38]: 100%
